Paper PMC11771213, “Molecular Docking Studies and In Vitro Activity of Pancreatic Lipase Inhibitors from Yak Milk Cheese” (International Journal of Molecular Sciences, 2025)
No end group written: not given here.

Tests used:
[1] = biological target: T1, porcine pancreatic lipase (PL) (Sus scrofa, UniProt P00591); assay: In vitro PL inhibition assay (p-nitrophenylbutyrate substrate); assay type: biochemical; conditions: triplicate; for IC50: porcine PL 1 mg/mL in 100 mM Tris HCl, pre-incubation 37 °C 30 min, 5 mM p-nitrophenylbutyrate, absorbance 450 nm, from fitted inhibition curve; for PL inhibition rate: range over concentrations of 0.2–1.0 mg/mL, 37 °C, 30 min pre-incubation
T1 construct: purchased Jiangsu Jingmei Bio technology (Yancheng, China)
T1 sequence (P00591 1-450): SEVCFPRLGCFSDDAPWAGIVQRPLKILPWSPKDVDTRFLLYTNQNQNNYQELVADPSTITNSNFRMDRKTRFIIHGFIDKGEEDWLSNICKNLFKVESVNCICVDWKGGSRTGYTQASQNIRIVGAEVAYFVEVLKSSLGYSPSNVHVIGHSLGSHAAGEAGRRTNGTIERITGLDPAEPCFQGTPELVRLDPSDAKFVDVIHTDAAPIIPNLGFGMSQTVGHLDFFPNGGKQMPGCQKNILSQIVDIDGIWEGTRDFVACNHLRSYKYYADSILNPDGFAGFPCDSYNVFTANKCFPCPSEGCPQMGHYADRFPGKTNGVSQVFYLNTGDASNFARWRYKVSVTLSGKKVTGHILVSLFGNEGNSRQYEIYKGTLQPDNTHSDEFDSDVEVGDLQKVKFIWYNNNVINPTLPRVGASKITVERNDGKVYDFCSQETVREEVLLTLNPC
Method: (§1) This experiment, based on the method of Glisan et al. and with slight modifications to the experimental method, determined the effects of peptides RK7 and KQ7 on porcine pancreatic lipase (PL). Firstly, dissolve p-nitrophenylbutyrate (5 mM) in a sodium acetate solution (5 mM, containing 1% Triton X-100). Dissolve porcine pancreatic lipase (PL) (1 mg/mL) in 100 mM Tris HCl buffer. Incubate with different concentrations of porcine pancreatic lipase (PL) and peptides in 96-well plates (37 °C) for 30 min. Then, mix with 5 mM p-nitrophenylbutyrate solution to initiate the enzyme reaction. The labeled pig pancreatic lipase antibody binds to form an antibody–antigen enzyme-labeled antibody complex. The substrate is converted to blue by enzyme catalysis and ultimately to yellow by acid action. The intensity of color is positively correlated with the presence of porcine pancreatic lipase (PL) in the sample. The enzyme-linked immunosorbent assay (ELISA) was used to measure the absorbance (OD value) at a wavelength of 450 nm, and the activity concentration of porcine pancreatic lipase (PL) in the sample was calculated using a standard curve.(1) PL inhibition rate/%=1−A−B/C−D × 100 where A is the absorbance value of the sample; B is the absorbance value of the sample blank; C is the absorbance value of the control group; and D is the absorbance value of the control blank group.
All measured data in the experiment were determined independently and measured in triplicate. All data were processed using SPSS Statistics 26.0. Data plots were generated using Origin 8.5 and GraphPad Prism 8.0.2.

[2] = biological target: T1, porcine pancreatic lipase (PL); assay: PL inhibitory activity after simulated gastrointestinal digestion (pepsin, then trypsin); assay type: biochemical; conditions: pepsin pH 2, then trypsin pH 7.5, enzyme–substrate 1:50 w/w, 37 °C
Method: as §1, with “group. […]” for “group.”

KVLPVPQ [KQ7, Lys-Val-Leu-Pro-Val-Pro-Gln]
IC50 [1]: 760 µM
PL inhibition rate at 120 min of simulated gastrointestinal digestion ([2]; 120 min time point): 61.31%

RPKHPIK [RK7, Arg-Pro-Lys-His-Pro-Ile-Lys]
IC50 [1]: 788 µM
PL inhibition rate [1]: 19.74–62.32%
PL inhibition rate after simulated gastrointestinal digestion (range over digestion) ([2]; 120-minute digestion, sampled every 30 min): 44.34–62.35%

CC(C)c1c(C(=O)Nc2ccccc2)c(-c2ccccc2)c(-c2ccc(F)cc2)n1CC[C@@H](O)C[C@@H](O)CC(=O)O [atorvastatin, reference compound]
IC50 [1]: 886 µM
PL inhibition rate [1]: 29.27–67.09%
